What was measured:
Type in all cases: biochemical
ChPPK [1] = target: T1, ChPPK (Cytophaga hutchinsonii, UniProt A0A6N4SMB5); assay: coupled hexokinase / G6PD assay, […] nm, double reciprocal plot; conditions: 100 mM Tris-HCl pH 8.0, 35 °C, MgCl2; polyP6 1 to 7.5 mM, ADP as co-substrate
T1 construct: gene CHU_0107; synthesized gene expressed in E. coli BL21(DE3) from pXMJ-19, Ni-NTA purified
T1 sequence (A0A6N4SMB5 1-305): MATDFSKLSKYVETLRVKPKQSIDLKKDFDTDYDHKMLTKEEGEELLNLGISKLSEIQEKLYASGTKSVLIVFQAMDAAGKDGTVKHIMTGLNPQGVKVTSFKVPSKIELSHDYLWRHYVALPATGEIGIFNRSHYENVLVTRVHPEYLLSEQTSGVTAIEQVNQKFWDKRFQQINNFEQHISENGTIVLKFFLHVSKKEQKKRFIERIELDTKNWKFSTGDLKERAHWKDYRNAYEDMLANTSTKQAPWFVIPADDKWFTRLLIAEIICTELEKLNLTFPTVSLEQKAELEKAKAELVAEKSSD

ChPPK [2] = target: T2, ChPPK (Cytophaga hutchinsonii, UniProt A0A6N4SMB5, K103E); assay: as above; conditions: 100 mM Tris-HCl pH 8.0, 35 °C, MgCl2; polyP6 1 to 7.5 mM, ADP as co-substrate
T2 construct: gene CHU_0107; synthesized gene expressed in E. coli BL21(DE3) from pXMJ-19, Ni-NTA purified
T2 sequence (A0A6N4SMB5 entry or part of it K103E): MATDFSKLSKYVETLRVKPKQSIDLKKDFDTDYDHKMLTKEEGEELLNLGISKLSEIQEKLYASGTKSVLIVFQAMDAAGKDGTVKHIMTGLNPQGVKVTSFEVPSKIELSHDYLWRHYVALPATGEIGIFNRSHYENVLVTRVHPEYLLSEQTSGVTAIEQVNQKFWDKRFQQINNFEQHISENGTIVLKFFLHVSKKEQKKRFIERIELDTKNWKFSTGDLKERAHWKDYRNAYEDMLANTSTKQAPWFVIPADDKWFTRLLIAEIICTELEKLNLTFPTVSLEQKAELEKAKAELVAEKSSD

ChPPK [3] = target: T3, ChPPK (Cytophaga hutchinsonii, UniProt A0A6N4SMB5, D82N); assay: as above; conditions: 100 mM Tris-HCl pH 8.0, 35 °C, MgCl2; polyP6 1 to 7.5 mM, ADP as co-substrate
T3 construct: gene CHU_0107; synthesized gene expressed in E. coli BL21(DE3) from pXMJ-19, Ni-NTA purified
T3 sequence (A0A6N4SMB5 entry or part of it D82N): as the sequence (A0A6N4SMB5 entry or part of it K103E) above, with D82N, E103K counted along it

EbPPK = target: T4, EbPPK (Erysipelotrichaceae bacterium, UniProt P0DY74); assay: coupled hexokinase / G6PD assay, […] nm; conditions: 100 mM Tris-HCl pH 8.0, 35 °C
T4 construct: gene DHS57_05705; synthesized gene expressed in E. coli BL21(DE3) from pXMJ-19, Ni-NTA purified
T4 sequence (P0DY74 1-298): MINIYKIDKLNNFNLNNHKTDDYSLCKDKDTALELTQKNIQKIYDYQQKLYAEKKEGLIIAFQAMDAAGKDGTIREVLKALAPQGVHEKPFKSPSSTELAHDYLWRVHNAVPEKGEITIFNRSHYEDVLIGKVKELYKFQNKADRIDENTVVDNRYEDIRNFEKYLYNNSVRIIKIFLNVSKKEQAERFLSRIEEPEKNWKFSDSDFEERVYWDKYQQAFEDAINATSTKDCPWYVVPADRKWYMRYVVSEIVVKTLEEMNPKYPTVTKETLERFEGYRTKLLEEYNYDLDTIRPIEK

GS = target: T5, GS (Corynebacterium glutamicum, UniProt H7C697); assay: L-glutamine production, HPLC with OPA derivatization; conditions: Tris-HCl pH 8.0, 37 °C, 100 mM (NH4)2SO4, 150 mM ATP, 50 mM MgCl2
T5 construct: gene glnA; expressed in E. coli BL21(DE3), Ni-NTA purified
T5 sequence (H7C697 1-477): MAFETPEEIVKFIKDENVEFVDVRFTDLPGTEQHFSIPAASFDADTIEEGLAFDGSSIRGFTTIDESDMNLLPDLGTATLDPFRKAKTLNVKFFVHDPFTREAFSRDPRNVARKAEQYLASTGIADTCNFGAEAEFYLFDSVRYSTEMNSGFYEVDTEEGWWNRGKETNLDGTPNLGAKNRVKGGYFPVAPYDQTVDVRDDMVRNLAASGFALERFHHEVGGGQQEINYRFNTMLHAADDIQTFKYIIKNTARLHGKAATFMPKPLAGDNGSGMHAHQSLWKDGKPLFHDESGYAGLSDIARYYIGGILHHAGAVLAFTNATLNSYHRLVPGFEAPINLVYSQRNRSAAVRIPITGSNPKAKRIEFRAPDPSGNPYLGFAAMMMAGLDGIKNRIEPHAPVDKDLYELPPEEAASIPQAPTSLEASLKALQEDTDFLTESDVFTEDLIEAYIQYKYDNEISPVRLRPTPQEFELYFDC

PaPPK2III = target: T6, PaPPK2III (Pseudomonas aeruginosa, UniProt Q9HYF1); assay: coupled hexokinase / G6PD assay, […] nm; conditions: 100 mM Tris-HCl pH 8.0, 35 °C, 10 mM ADP, 50 mM polyP6, 25 mM MgCl2
T6 construct: gene PA3455; expressed in E. coli BL21(DE3) from pET-28a, Ni-NTA purified
T6 sequence (Q9HYF1 1-496): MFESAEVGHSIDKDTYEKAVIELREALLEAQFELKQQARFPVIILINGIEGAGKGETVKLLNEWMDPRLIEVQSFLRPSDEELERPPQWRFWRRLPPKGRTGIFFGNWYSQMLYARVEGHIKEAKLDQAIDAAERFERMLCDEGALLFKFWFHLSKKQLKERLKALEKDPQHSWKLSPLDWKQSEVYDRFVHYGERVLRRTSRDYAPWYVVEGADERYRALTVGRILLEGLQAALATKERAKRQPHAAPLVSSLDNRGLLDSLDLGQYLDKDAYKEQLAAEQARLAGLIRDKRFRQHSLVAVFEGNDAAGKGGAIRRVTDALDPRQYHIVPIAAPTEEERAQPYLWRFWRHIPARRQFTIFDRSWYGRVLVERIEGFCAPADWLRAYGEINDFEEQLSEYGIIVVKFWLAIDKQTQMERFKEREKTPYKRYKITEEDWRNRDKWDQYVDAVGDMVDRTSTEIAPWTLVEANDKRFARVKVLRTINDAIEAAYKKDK

PaPPK2II = target: T7, PaPPK2II (Pseudomonas aeruginosa, UniProt Q9I154); assay: coupled hexokinase / G6PD assay, […] nm; conditions: 100 mM Tris-HCl pH 8.0, 35 °C, 10 mM ADP, 50 mM polyP6, 25 mM MgCl2
T7 construct: gene PA2428; expressed in E. coli BL21(DE3) from pET-28a, Ni-NTA purified
T7 sequence (Q9I154 1-304): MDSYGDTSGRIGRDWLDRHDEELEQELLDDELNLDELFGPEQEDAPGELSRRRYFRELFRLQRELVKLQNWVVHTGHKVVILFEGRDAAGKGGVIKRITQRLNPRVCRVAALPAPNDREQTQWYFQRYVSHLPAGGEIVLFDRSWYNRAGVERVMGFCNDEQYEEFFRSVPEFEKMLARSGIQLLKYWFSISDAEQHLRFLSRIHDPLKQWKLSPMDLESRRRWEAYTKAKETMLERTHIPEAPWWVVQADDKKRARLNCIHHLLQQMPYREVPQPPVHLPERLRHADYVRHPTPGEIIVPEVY

Compound: polyP6
- Km (ChPPK [1]): 2300 ± 20 µM
- Km (ChPPK [2]): 2240 ± 20 µM
- Km (ChPPK [3]): 2120 ± 10 µM

Compound: Nc1ncnc2c1ncn2[C@@H]1O[C@H](COP(=O)(O)O)[C@@H](O)[C@H]1O [AMP]
- coupled hexokinase / G6PD assay, 340 nm (EbPPK; 10 mM AMP, polyP6, 25 mM MgCl2): EbPPK was capable of the best catalytic efficiency for converting AMP

Compound: N[C@@H](CCC(=O)O)C(=O)O [L-glutamate]
- L-glutamine production, HPLC with OPA derivatization (GS): We performed glutamine production from glutamate with GS enzyme

Compound: Nc1ncnc2c1ncn2[C@@H]1O[C@H](COP(=O)(O)OP(=O)(O)O)[C@@H](O)[C@H]1O [ADP]
- coupled hexokinase / G6PD assay, 340 nm (PaPPK2III): the specific activities of the seven PPK enzymes
- coupled hexokinase / G6PD assay, 340 nm (PaPPK2II): the specific activities of the seven PPK enzymes
- coupled hexokinase / G6PD assay, 340 nm (EbPPK; 10 mM ADP, 50 mM polyP6, 25 mM MgCl2): polyP3, polyP6 and polyPn were carried out to show the specific activities

Reference: publication PMC10401862, “A high-throughput dual system to screen polyphosphate kinase mutants for efficient ATP regeneration in L-theanine biocatalysis” (Biotechnology for Biofuels and Bioproducts, 2023)
